The text below walks through data of patent US9309247B2, “2-substituted imidazo[4,5-D]phenanthroline derivatives and their use in the treatment of cancer” (Aptose Biosciences Inc., priority 2013, dated 2016).

pIC50: −log10 of the molar value. Where only a bound is given, the exact number is not on record here.

Assay [1] concerns human renal cancer cells ACHN. In words: XTT cell proliferation assay, ACHN. The settings on record: 5 days incubation, read-out: Antiproliferative activity, Kidney ACHN. The assay is classed as cell-based. The protocol:
(§1) Exemplary compounds 1-8 were tested for anti-cancer activity in vitro using human renal cancer cells (ACHN and CAK-1), human pancreatic cells (BXPC3 and SU-86-86), human prostate cancer cell (DU14), human colon carcinoma cells (HT-29 and KM-12), leukemia cells (HL60), brain cancer/tumour cells (SK-A-AS, U87-MG), and human non-small cell lung cancer cells (H460). Compounds 1-8 are the specific embodiments of Formula (I) and Formula (IV) as described above in this application.
(§2) The cells were maintained as a monolayer in a growth medium; McCoy's 5A modified medium (Sigma, St. Louis, Mo.), supplemented with 2 mM L-glutamine (Gibco, Grand Island, N.Y.), 10% fetal bovine serum (FBS) (Multicell, WISENT Inc. St-Bruno, QC), antibiotic-antimycotic (Multicell), at 37° C. in a 5% CO2-humidified incubator. Cells were transferred onto 150 mm tissue culture plates and grown until sub-confluency (70-80%) prior to their use. The in vitro antiproliferative activity of compounds was evaluated by incubating the cells with varying concentrations of exemplary compounds as shown in Table 1 for 5 days. The efficacy of these compounds in this cell proliferation assay was measured based in the ability of live cells to reduce the tetrazolium salt XTT to orange colored compounds of formazan (XTT cell proliferation kit IT, Roche Applied Science, Montreal, QC).

The subject of assay [2] is human renal cancer cells CAKI-1. Briefly: XTT cell proliferation assay, CAKI-1. The note with it: 5 days incubation, read-out: Antiproliferative activity, Kidney CAKI-1. The assay is classed as cell-based. The protocol: as §1, §2
Background: Formazan colour is commonly taken as a measure of viable cells.

In assay [3] the test system is human pancreatic cells BXPC3. Briefly: XTT cell proliferation assay, BXPC3. It counts as cell-based. The note with it: 5 days incubation, read-out: Antiproliferative activity, Pancreas BXPC3. The protocol:
as §1, §2

Assay [4] relates to human pancreatic cells SU-86-86. Briefly: XTT cell proliferation assay, SU-86-86. The note with it: 5 days incubation, read-out: Antiproliferative activity, Pancreas SU-86-86. The assay is classed as cell-based. The protocol:
as §1, §2

Assay [5] relates to human prostate cancer cell DU14. In words: XTT cell proliferation assay, DU14. It counts as cell-based. The note with it: 5 days incubation, read-out: Antiproliferative activity, Pros. DU14. The protocol:
as §1, §2

In assay [6] the test system is human colon carcinoma cells KM12. In words: XTT cell proliferation assay, KM12. It counts as cell-based. The settings on record: 5 days incubation, read-out: Antiproliferative activity, Colon KM12. The protocol: as §1, §2
The subject of assay [7] is human colon carcinoma cells HT-29. In words: XTT cell proliferation assay, HT-29. It counts as cell-based. The settings on record: 5 days incubation, read-out: Antiproliferative activity, Colon HT-29. The protocol: as §1, §2
Another assay relates to leukemia cells HL60. In words: XTT cell proliferation assay, HL60. It counts as cell-based, human. The note with it: 5 days incubation, read-out: Antiproliferative activity, Leuk. HL60. The protocol: as §1, §2
The subject of assay [8] is brain cancer/tumour cells SK-N-AS. In words: XTT cell proliferation assay, SK-N-AS. It counts as cell-based, human. The settings on record: 5 days incubation, read-out: Antiproliferative activity, Brain SK-N-AS. The protocol: as §1, §2
Assay [9] relates to brain cancer/tumour cells U87-MG. In words: XTT cell proliferation assay, U87-MG. It counts as cell-based, human. The settings on record: 5 days incubation, read-out: Antiproliferative activity, Brain U87-MG. The protocol:
as §1, §2

The test system of assay [10] is non-small cell lung cancer cells H226. In words: XTT cell proliferation assay, H226. The assay is classed as cell-based, human. The settings on record: 5 days incubation, read-out: Antiproliferative activity, NSCLC H226. The protocol: [The procedure below names another cell line; the source lists this cell line under the same test.] as §1, §2
For assay [11], the system named is non-small cell lung cancer cells HOP-92. In words: XTT cell proliferation assay, HOP-92. It counts as cell-based, human. The note with it: 5 days incubation, read-out: Antiproliferative activity, NSCLC HOP-92. The protocol: [The procedure below names another cell line; the source lists this cell line under the same test.] as §1, §2
Assay [12] relates to non-small cell lung cancer cells HOP-62. Briefly: XTT cell proliferation assay, HOP-62. It counts as cell-based, human. The note with it: 5 days incubation, read-out: Antiproliferative activity, NSCLC HOP-62. The protocol: [The procedure below names another cell line; the source lists this cell line under the same test.] as §1, §2
The test system of assay [13] is human non-small cell lung cancer cells H460. In words: XTT cell proliferation assay, H460. The assay is classed as cell-based. The note with it: 5 days incubation, read-out: Antiproliferative activity, NSCLC H460. The protocol:
as §1, §2

Assay [14] deals with non-small cell lung cancer cells EKVX. In words: XTT cell proliferation assay, EKVX. The assay is classed as cell-based, human. The note with it: 5 days incubation, read-out: Antiproliferative activity, NSCLC EKVX. The protocol:
[The procedure below names another cell line; the source lists this cell line under the same test.] as §1, §2

Assay [15] relates to Human Burkitt's lymphoma Raji cells. Briefly: Cell growth inhibition assay, Raji. The assay is classed as cell-based. The settings on record: five days of incubation, XTT; read-out: IC50 Raji (hs). The protocol:
(§3) In this study, compounds 1-8 were screened in vitro against a panel of four mouse lymphoma cell lines and two human lymphoma cell line for cell growth inhibition activity. Following treatment, half maximal inhibitory concentrations (IC50) were determined with the objective of selecting the most efficacious compounds for evaluation of in vitro absorption, distribution, metabolism, and excretion (ADME) screening.
Human Burkitt's lymphoma Raji cells (ATCC CCL-86) were grown in suspension in Roswell Park Memorial Institute (RPMI) 1640 medium supplemented with 10% fetal bovine serum (FBS), 10 mM HEPES KOH pH 7.4, and 2 mM sodium pyruvate at 37° C. in an atmosphere of 5% CO2 in air. Logarithmically growing cells were routinely sub-cultured twice weekly. Briefly, cells were collected by centrifugation, resuspended in pre-warmed media, and diluted 1:10 into a 75 cm^2 flask.
(§4) Cells were subcultured and 4×10^3 cells (in 50 μL) were transferred to each well in a Falcon 96-well tissue culture plate. Exemplary compounds were dissolved in pure dimethyl sulphoxide (DMSO) at a concentration of 10 mM. From this 10 mM stock solution, 12 successive serial dilutions were made in DMSO (2.5 fold dilutions), ranging from 0.52 μM to 10 mM. Using these stock dilutions, 5 μL of each were added to 500 μL of media, and 50 μL of this was added to the cells. The final concentrations being tested ranged from 0.0026 μM to 50 μM. Each concentration was tested in triplicate, and DMSO and untreated cells were also included as controls. After five days of incubation with the compounds, cell viability was determined using the XTT cell proliferation kit (Roche, Cat. No. 11 465 015 001). Following the XTT protocol, 4.5-24 hours after addition of the reagent, the plates were read in a μQuant 96-well plate spectrophotometer (Biotek Instruments Inc.) and the results analyzed to determine the IC50.

In assay [16] the test system is human Burkitt's lymphoma Ramos cells. Briefly: Cell growth inhibition assay, Ramos. The note with it: five days of incubation, XTT; read-out: IC50 Ramos (hs). The assay is classed as cell-based. The protocol:
as §3
(§5) Similarly, human Burkitt's lymphoma Ramos cells (ATCC CRL-1596) were grown in suspension in Roswell Park Memorial Institute (RPMI) 1640 medium supplemented with 10% fetal bovine serum (FBS), 10 mM HEPES KOH pH 7.4, and 2 mM sodium pyruvate. Mouse P388D1 (ATCC CCL-46) and WR19L (ATCC TIB-52) cells were grown in suspension in Dulbecco's Modified Eagle Medium (DMEM) with 10% fetal bovine serum (FBS), 10 mM HEPES, and 2 mM sodium pyruvate. Mouse WEHI231 (ATCC CRL-1702) and EL4 (ATCC TIB-39) cells were grown in suspension in DMEM with 10% fetal bovine serum (FBS), 10 mM HEPES KOH pH 7.4, 2 mM sodium pyruvate, and 0.05 mM β-mercaptoethanol. All cells were maintained at 37° C. in an atmosphere of 5% CO2 in air. Logarithmically growing cells were routinely sub-cultured twice weekly. Briefly, cells were collected by centrifugation, resuspended in pre-warmed media, and diluted 1:10 into a 75 cm^2 flask.
as §4

Another assay relates to EL4 (mouse, lymphoma). Briefly: Cell growth inhibition assay, EL4. It counts as cell-based. The note with it: five days of incubation, XTT; read-out: IC50 EL4 (ms). The protocol:
as §3, §5, §4

The subject of a further assay is P388D1 (mouse, lymphoma). In words: Cell growth inhibition assay, P388D1. The assay is classed as cell-based. The note with it: five days of incubation, XTT; read-out: IC50 P388D1 (ms). The protocol:
as §3, §5, §4

In assay [17] the test system is WEHI 231 (mouse, B-cell lymphoma). Briefly: Cell growth inhibition assay, WEHI231. The note with it: five days of incubation, XTT; read-out: IC50 WEHI231 (ms). The assay is classed as cell-based. The protocol: as §3, §5, §4
The test system of another assay is WR19L (mouse, lymphoma). Briefly: Cell growth inhibition assay, WR19L. It counts as cell-based. The note with it: five days of incubation, XTT; read-out: IC50 WR19L (ms). The protocol: as §3, §5, §4
The test system of assay [18] is panel of human and mouse lymphoma cell lines. Briefly: Cell growth inhibition, whole lymphoma panel (mean IC50, mean rank). It counts as cell-based. The settings on record: mean over six lymphoma cell lines. The protocol: as §3, §4
In vitro potency was assessed using eight exemplary compounds against a panel of human and mouse lymphoma cell lines (Table 4). […] To compare the efficacy of the compounds in cell growth inhibition across the entire panel of cell lines screened, the eight compounds were ranked according to efficacy against each cell line with a numerical value of one indicating most efficacious (lowest IC50 value) and eight being the least efficacious (highest IC50 value).

For assay [19] the following is noted: NCI screen; cited from earlier work.
Assay [20] concerns Saccharmyces cerevisiae strains that have mutations in genes related to cell cycle control and DNA repair damage. The settings on record: Stage0 testing, single concentration, six yeast strains; cited from earlier work.

With `FC1(F)Oc2ccc(-c3nc4c5cccnc5c5ncccc5c4[nH]3)cc2O1` [Compound 6], the pIC50 in assay [1] was 7.42; in assay [2], 7.52; in assay [3], 6.70; in assay [4], 7.59; in [5] it was 6.89; in assay [6], 6.74. In addition, the pIC50 in assay [7] was 6.77; in the assay with leukemia cells HL60, 7.30; in assay [8], 7.44; in assay [9] it was 6.74; in assay [10], 6.68; in [11], 7.52. Moreover, the pIC50 in assay [12] was 7.52; in assay [13], 6.80; in assay [14] it was 6.77; in assay [15], 7.49; in assay [16], 7.74; in the assay on EL4 (mouse, lymphoma), 7.24. In addition, the pIC50 in the assay with P388D1 (mouse, lymphoma) is 7.28; in assay [17], 8.38; with WR19L (mouse, lymphoma), above 8.59; in [18] it was 7.55.

On to `FC1(F)Oc2ccc(-c3nc4c5cccnc5c5ncccc5c4[nH]3)cc2O1` [Compound 7], for which the pIC50 was 7.64 in assay [1]; 6.80 in [2]; 7.40 in assay [3]; 6.96 in assay [4]; 7.52 in assay [5]; 6.40 in assay [6]. Besides, the pIC50 in [7] is 6.41; in the assay on leukemia cells HL60, 7.52; in assay [8] it was 6.72; in assay [9] it was 7.40; in [10], 6.70; in assay [11] it was 6.77. For the same compound, the pIC50 was 6.82 in assay [12]; 6.49 in assay [13]; 6.66 in [14]; 6.95 in assay [15]; 7.08 in assay [16]; 6.33 in the assay on EL4 (mouse, lymphoma). Moreover, the pIC50 in the assay on P388D1 (mouse, lymphoma) was 6.68; in [17] it was 8.12; in the assay on WR19L (mouse, lymphoma), 7.92; in assay [18], 6.83.

As to `c1ccc2c(-c3nc4ccccc4[nH]3)cccc2c1` [NCI #144033], the “activity in the In Vivo Anticancer Drug Screen” value in assay [19] is reported as “None of these three compounds showed any activity”.

As to `CN(C)c1ccc(-c2nc3c4ccccc4c4ccccc4c3[nH]2)cc1` [NCI #322334], the “activity in the In Vivo Anticancer Drug Screen” value in assay [19] is listed as “None of these three compounds showed any activity”.

Turning to `Cc1ccccc1-c1nc2c3ccccc3c3ccccc3c2[nH]1` [NCI #338970], the “activity in the In Vivo Anticancer Drug Screen” value in [19] is given as “None of these three compounds showed any activity”. Besides, the “activity in the Yeast Anticancer Drug Screen” value in assay [20] was “active”.
